One test concerns the target T1, YjdN (Escherichia coli, UniProt P16681).
T1 construct: C-terminal His10 tag; purified by IMAC and size exclusion chromatography
T1 sequence (P16681 1-147): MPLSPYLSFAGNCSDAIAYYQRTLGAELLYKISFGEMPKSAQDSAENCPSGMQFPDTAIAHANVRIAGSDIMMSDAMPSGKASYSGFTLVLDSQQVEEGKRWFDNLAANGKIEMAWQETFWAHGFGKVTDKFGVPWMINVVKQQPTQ
Description: surface plasmon resonance. In kind it is binding. From the text:
surface plasmon resonance on YjdN | Direct binding of CFX to YjdN or YbaA was further assessed by surface plasmon resonance
For orientation: SPR reads the build-up and loss of mass on a sensor chip optically.

The target in the next test is T2, YbaA (Escherichia coli, UniProt P0AAQ6).
T2 construct: C-terminal His10 tag; purified by IMAC and size exclusion chromatography; printed peptide IVECWASDVPDGKVTDFR
T2 sequence (P0AAQ6 1-117): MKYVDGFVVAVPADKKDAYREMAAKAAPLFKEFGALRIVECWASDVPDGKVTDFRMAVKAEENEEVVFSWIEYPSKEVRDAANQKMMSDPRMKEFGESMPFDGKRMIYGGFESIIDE
Nature of the test: surface plasmon resonance. In kind it is binding. The text has this: surface plasmon resonance on YbaA | Direct binding of CFX to YjdN or YbaA was further assessed by surface plasmon resonance

The Kd is the constant that tells how readily two partners part at equilibrium. Lower therefore signals a tighter complex.

On to `O=C(O)c1cn(C2CC2)c2cc(N3CCNCC3)c(F)cc2c1=O` [compound 1, Ciprofloxacin], for which the values for the Kd at YjdN and on YbaA were 1400 ± 620 nM and 1000 ± 340 nM, respectively.

The record behind these values is doi:10.1101/2025.10.16.682360v1, “Live-Cell Chemoproteomic Profiling Identifies the Uncharacterised Protein YbaA as a Direct Target of Ciprofloxacin in Escherichia coli” (biorxiv, 2025).
